Read-outs that look alike come from different tables or passages of the source.

Among the data in patent publication US9096524B2, “Anthelmintic agents and their use” (Intervet International B.V., priority 2009, dated 2015) are minimal effective concentration values, retold here.

The test system of the assay is A. galli (intestinal roundworm of chicken) larval stage 3; O. dentatum (nodular worm of swine) larval stages 3 and 4. Nature of the assay: Activity against Ascaridia galli and Oesophagostomum dentatum larvae in vitro (minimum effective concentration). Particulars: threshold 1 μM. Type of assay: cell-based.
Setting [1] is: in vitro, two or more of A. galli L3, O. dentatum L3, L4, read-out: MEC (minimum effective concentration) against two or more of the tested nematodes.
[2] abbreviates: read-out: MEC (minimum effective concentration) against two or more of the tested nematodes, in vitro, two or more of A. galli L3, O. dentatum L3, L4.
Where [3] appears, read: in vitro, one or more of A. galli L3, O. dentatum L3, L4, read-out: MEC (minimum effective concentration) against one or more of the tested nematodes.

On to `CC(C)(CN1CCN(c2ccc(C(F)(F)F)cc2)CC1)C(=O)N1CCC(Nc2ccc([N+](=O)[O-])c(C(F)(F)F)c2)CC1` [Example 585], for which the minimal effective concentration under setting [1] is under 1 µM.

As for `CC(N1CCN(c2ccc(Cl)cc2)CC1)C(C)(C)C(=O)N1CCC(Nc2ccc([N+](=O)[O-])c(C(F)(F)F)c2)CC1` (stereo not drawn) [Example 586], the minimal effective concentration under setting [1] is under 1 µM.

With `CC(C(=O)N1CCC(Nc2ccc([N+](=O)[O-])c(C(F)(F)F)c2)CC1)C(C)N1CCN(c2ccc(C(C)(C)C)cc2)CC1` (stereo not drawn) [Example 588], under setting [2], the minimal effective concentration was under 1 µM.

As to `CC(C)(C)c1ccc(N2CCN(CCCC(=O)N3CCC(Nc4ccnc(C(F)(F)F)c4)CC3)CC2)cc1` [Example 591], under setting [1], the minimal effective concentration was under 1 µM.

On to `O=C(CCN1CCN(c2cccc(Cl)c2)CC1)NC1CCN(c2ccc([N+](=O)[O-])c(C(F)(F)F)c2)CC1` [Example 594], for which the minimal effective concentration under setting [3] is under 1 µM.

For `O=C(CCN1CCN(c2ccc(C(F)(F)F)cc2)CC1)NC1CCN(c2ccc([N+](=O)[O-])c(C(F)(F)F)c2)CC1` [Example 596], under setting [3], the minimal effective concentration is under 1 µM.

`N#Cc1ccc(N2CCC(NC(=O)CCN3CCN(c4cccc(Cl)c4)CC3)CC2)cc1C(F)(F)F` [Example 609]: the minimal effective concentration under setting [3] was under 1 µM.

On to `N#Cc1ccc(N2CCC(NC(=O)CCN3CCN(c4ccc(C(F)(F)F)cc4)CC3)CC2)cc1C(F)(F)F` [Example 611], for which the minimal effective concentration (read-out: MEC (minimum effective concentration) against one or more of the tested nematodes, in vitro, one or more of A. galli L3, O. dentatum L3, L4) is under 1 µM.

Turning to `N#Cc1ccc(N2CCC(NC(=O)CCCN3CCN(c4cccc(Cl)c4)CC3)CC2)cc1C(F)(F)F` [Example 617], the minimal effective concentration under setting [1] was under 1 µM.

Take `N#Cc1ccc(N2CCC(NC(=O)CCCN3CCN(c4ccc(C(F)(F)F)cc4)CC3)CC2)cc1C(F)(F)F` [Example 619]: the minimal effective concentration under setting [2] was under 1 µM.

With `O=C(CCN1CCN(c2cccc(Cl)c2)CC1)NC1CCN(c2ccc(C(F)(F)F)cn2)CC1` [Example 640], the minimal effective concentration under setting [3] was under 1 µM.

On to `O=C(CCCN1CCN(c2cccc(Cl)c2)CC1)NC1CCN(c2ccc(C(F)(F)F)cn2)CC1` [Example 648], for which, under setting [3], the minimal effective concentration is under 1 µM.

Take `CC(CN1CCN(c2ccc(C(F)(F)F)cc2)CC1)C(=O)N1CCC(Nc2ccc(SC(F)(F)F)cc2)CC1` (stereo not drawn) [Example 661]: the minimal effective concentration under setting [2] was under 1 µM.

As for `N#Cc1ccc(N2CCC(NC(=S)CCCN3CCN(c4ccc(C(F)(F)F)cc4)CC3)CC2)cc1C(F)(F)F` [Example 662], the minimal effective concentration under setting [1] is under 1 µM.

Regarding `O=[N+]([O-])c1ccc(NC2CCN(C(=S)CCN3CCN(C(=S)c4ccc(C(F)(F)F)cc4)CC3)CC2)cc1C(F)(F)F` [Example 667], the minimal effective concentration under setting [1] was under 1 µM.

Turning to `CC(CN1CCN(c2ccc(Cl)cc2)CC1)C(=S)N1CCC(Nc2ccc(C#N)c(C(F)(F)F)c2)CC1` (stereo not drawn) [Example 668], under setting [1], the minimal effective concentration was under 1 µM.

Regarding `COc1cc(NC2CCN(C(=S)CCN3CCN(c4ccc(OCc5ccccc5)cc4)CC3)CC2)ccc1[N+](=O)[O-]` [Example 675], the minimal effective concentration under setting [1] was under 1 µM.

Take `CN(CC1CCN(c2ccc(Cl)cc2)CC1)C(=S)N1CCC(Nc2ccc([N+](=O)[O-])c(C(F)(F)F)c2)CC1` [Example 676]: the minimal effective concentration under setting [1] was under 1 µM.

With `O=[N+]([O-])c1ccc(NC2CCN(C(=S)CCN3CCN(c4ccc(OCc5ccccc5)cc4)CC3)CC2)cc1C(F)(F)F` [Example 678], under setting [1], the minimal effective concentration was under 1 µM.

Regarding `CCOc1ccc(N2CCC(OCC(=S)N3CCC(Nc4ccc([N+](=O)[O-])c(C(F)(F)F)c4)CC3)CC2)cc1` [Example 694], under setting [3], the minimal effective concentration was under 1 µM.

As to `O=[N+]([O-])c1ccc(OC2CCN(C(=S)CCN3CCC(OCc4ccc(C(F)(F)F)cc4)CC3)CC2)cc1C(F)(F)F` [Example 695], the minimal effective concentration by setting is: under setting [3], under 1 µM; under setting [1], under 1 µM.

As to `O=[N+]([O-])c1ccc(OC2CCN(C(=S)CCN3CCC(c4ccc(C(F)(F)F)cc4)CC3)CC2)cc1C(F)(F)F` [Example 697], the minimal effective concentration is, setting by setting: under setting [3], under 1 µM; under setting [1], under 1 µM.
